Data published in patent US9132140B2, “Boronic acid derivatives and therapeutic uses thereof” (Rempex Pharmaceuticals, Inc., priority 2013, dated 2015).
Where two headings read alike, the source gives them in different places.

Tests used:
KP1098 (IMP-26 TEM SHV) = format: cell-based, Klebsiella pneumoniae
Source text: (§1) Several strains simultaneously expressing both class A and class B carbapenemases, which were constructed using conjugation, were also included in the panel.

KPM1123 (KPC-2 TEM SHV) = format: cell-based, Klebsiella pneumoniae
Source text: as §1

KPM1108 (NDM, KPC) = format: cell-based, Klebsiella pneumoniae
Source text: as §1

KPM1110 (NDM, KPC) = format: cell-based, Klebsiella pneumoniae
Source text: as §1

[1] = tested on: KPM1347 (NDM-1 SHV CTX-M-15); format: cell-based, Klebsiella pneumoniae
Source text: as §1

KPM1107 (NDM, KPC) = format: cell-based, Klebsiella pneumoniae
Source text: as §1

KP1064 (KPC TEM SHV) = format: cell-based, Klebsiella pneumoniae
Source text: as §1

[2] = tested on: KPM1346 (NDM-1 TEM SHV CTX-M-15 CMY); format: cell-based, Klebsiella pneumoniae
Source text: as §1

KP1014 (Vim-1, TEM, SHV) = format: cell-based, Klebsiella pneumoniae
Source text: as §1

KP1097 (IMP-1 SHV) = format: cell-based, Klebsiella pneumoniae
Source text: as §1

KP1065 (VIM-1, SHV-11) = format: cell-based, Klebsiella pneumoniae
Source text: as §1

KPM1111 (NDM, KPC) = format: cell-based, Klebsiella pneumoniae
Source text: as §1

KPM1345 (VIM-1 SHV) = format: cell-based, Klebsiella pneumoniae
Source text: as §1

KP1054 (VIM-1, SHV-11) = format: cell-based, Klebsiella pneumoniae
Source text: as §1

KPM1109 (NDM, KPC) = format: cell-based, Klebsiella pneumoniae
Source text: as §1

KP1070 (KPC TEM SHV) = format: cell-based, Klebsiella pneumoniae
Source text: as §1

KPM1122 (NDM, VIM) = format: cell-based, Klebsiella pneumoniae
Source text: as §1

KPM1344 (VIM-1) = format: cell-based, Klebsiella pneumoniae
Source text: as §1

KP1061 (KPC TEM SHV) = format: cell-based, Klebsiella pneumoniae
Source text: as §1

[3] = tested on: KP1081 (NDM-1, TEM-1, SHV-11, CMY-6, CTX-M-15); format: cell-based, Klebsiella pneumoniae
Source text: as §1

[4] = tested on: KP1087 (KPC-2, CTX-M-15, SHV-11, TEM-1); format: cell-based, Klebsiella pneumoniae
Source text: (§2) The results are present in Table 6.
(§3) The results are present in Table 7.

[5] = tested on: KP1081 (NDM-1, TEM-1, SHV-11, CMY-6, CTX-M-15); format: cell-based, Klebsiella pneumoniae; remark: listed apart in the source
Source text: as §2, §3

ECM6711 (pUCP24-VIM-1) = assay: microbe, parasite or virus in culture; format: cell-based, E. coli; details: Escherichia coli, read-out: Imipenem MIC Alone
EA1019 (SHV-5, VIM-1) = format: cell-based, Enterobacter aerogenes
Source text: as §1

C[C@@H](O)[C@H]1C(=O)N2C(C(=O)O)=C(SCCN=CN)C[C@H]12 [Imipenem, reference compound]
Carbapenem MIC alone (KP1098 (IMP-26 TEM SHV)): Y (key: X: MIC of less than 1 μg/mL; Y: MIC of 1 μg/mL to 10 μg/mL; Z: MIC of greater than 10 μg/mL)
Carbapenem MIC alone (KPM1123 (KPC-2 TEM SHV)): Z (key: X: MIC of less than 1 μg/mL; Y: MIC of 1 μg/mL to 10 μg/mL; Z: MIC of greater than 10 μg/mL)
Carbapenem MIC alone (KPM1108 (NDM, KPC)): Z (key: X: MIC of less than 1 μg/mL; Y: MIC of 1 μg/mL to 10 μg/mL; Z: MIC of greater than 10 μg/mL)
Carbapenem MIC alone (KPM1110 (NDM, KPC)): Z (key: X: MIC of less than 1 μg/mL; Y: MIC of 1 μg/mL to 10 μg/mL; Z: MIC of greater than 10 μg/mL)
Carbapenem MIC alone [1]: Z (key: X: MIC of less than 1 μg/mL; Y: MIC of 1 μg/mL to 10 μg/mL; Z: MIC of greater than 10 μg/mL)
Carbapenem MIC alone (KPM1107 (NDM, KPC)): Z (key: X: MIC of less than 1 μg/mL; Y: MIC of 1 μg/mL to 10 μg/mL; Z: MIC of greater than 10 μg/mL)
Carbapenem MIC alone (KP1064 (KPC TEM SHV)): Z (key: X: MIC of less than 1 μg/mL; Y: MIC of 1 μg/mL to 10 μg/mL; Z: MIC of greater than 10 μg/mL)
Carbapenem MIC alone [2]: Z (key: X: MIC of less than 1 μg/mL; Y: MIC of 1 μg/mL to 10 μg/mL; Z: MIC of greater than 10 μg/mL)
Carbapenem MIC alone (KP1014 (Vim-1, TEM, SHV)): Z (key: X: MIC of less than 1 μg/mL; Y: MIC of 1 μg/mL to 10 μg/mL; Z: MIC of greater than 10 μg/mL)
Carbapenem MIC alone (KP1097 (IMP-1 SHV)): Y (key: X: MIC of less than 1 μg/mL; Y: MIC of 1 μg/mL to 10 μg/mL; Z: MIC of greater than 10 μg/mL)
Carbapenem MIC alone (KP1065 (VIM-1, SHV-11)): Y (key: X: MIC of less than 1 μg/mL; Y: MIC of 1 μg/mL to 10 μg/mL; Z: MIC of greater than 10 μg/mL)
Carbapenem MIC alone (KPM1111 (NDM, KPC)): Z (key: X: MIC of less than 1 μg/mL; Y: MIC of 1 μg/mL to 10 μg/mL; Z: MIC of greater than 10 μg/mL)
Carbapenem MIC alone (KPM1345 (VIM-1 SHV)): Y (key: X: MIC of less than 1 μg/mL; Y: MIC of 1 μg/mL to 10 μg/mL; Z: MIC of greater than 10 μg/mL)
Carbapenem MIC alone (KP1054 (VIM-1, SHV-11)): Y (key: X: MIC of less than 1 μg/mL; Y: MIC of 1 μg/mL to 10 μg/mL; Z: MIC of greater than 10 μg/mL)
Carbapenem MIC alone (KPM1109 (NDM, KPC)): Z (key: X: MIC of less than 1 μg/mL; Y: MIC of 1 μg/mL to 10 μg/mL; Z: MIC of greater than 10 μg/mL)
Carbapenem MIC alone (KP1070 (KPC TEM SHV)): Z (key: X: MIC of less than 1 μg/mL; Y: MIC of 1 μg/mL to 10 μg/mL; Z: MIC of greater than 10 μg/mL)
Carbapenem MIC alone (KPM1122 (NDM, VIM)): Z (key: X: MIC of less than 1 μg/mL; Y: MIC of 1 μg/mL to 10 μg/mL; Z: MIC of greater than 10 μg/mL)
Carbapenem MIC alone (KPM1344 (VIM-1)): Z (key: X: MIC of less than 1 μg/mL; Y: MIC of 1 μg/mL to 10 μg/mL; Z: MIC of greater than 10 μg/mL)
Carbapenem MIC alone (KP1061 (KPC TEM SHV)): Z (key: X: MIC of less than 1 μg/mL; Y: MIC of 1 μg/mL to 10 μg/mL; Z: MIC of greater than 10 μg/mL)
Carbapenem MIC alone [3]: Z (key: X: MIC of less than 1 μg/mL; Y: MIC of 1 μg/mL to 10 μg/mL; Z: MIC of greater than 10 μg/mL)
Carbapenem MIC alone [4]: Y (key: X: MIC of less than 1 μg/mL; Y: MIC of 1 μg/mL to 10 μg/mL; Z: MIC of greater than 10 μg/mL)
Carbapenem MIC alone [5]: Z (key: X: MIC of less than 1 μg/mL; Y: MIC of 1 μg/mL to 10 μg/mL; Z: MIC of greater than 10 μg/mL)
MIC (ECM6711 (pUCP24-VIM-1)): > 1 µg/mL
Carbapenem MIC alone (EA1019 (SHV-5, VIM-1)): Z (key: X: MIC of less than 1 μg/mL; Y: MIC of 1 μg/mL to 10 μg/mL; Z: MIC of greater than 10 μg/mL)
